The values below are quoted from earlier work in patent US5716935A, “Use of antiotensin II analogs in tissue repair” (University of Southern California, priority 1996, dated 1998).

In one data set the test system is aminopeptidase. The conditions noted are these: reported in literature.
The next data set relates to wound tissue. The conditions noted are these: applied to wound tissue; U.S. Pat. No. 5,015,629.

On to `CC[C@H](C)[C@H](NC(=O)[C@H](Cc1ccc(O)cc1)NC(=O)[C@@H](NC(=O)[C@H](CCCNC(=N)N)NC(=O)CNC)C(C)C)C(=O)N[C@@H](Cc1cnc[nH]1)C(=O)N1CCC[C@H]1C(=O)N[C@@H](Cc1ccccc1)C(=O)O` [Analog 4, Sar-Arg-Val-Tyr-Ile-His-Pro-Phe], for which the cleavage by aminopeptidase entry in the data set with aminopeptidase was “resistant”.

As for “Asp-Arg-Val-Tyr-Ile-His-Pro-Phe [angiotensin II, octapeptide present in humans and other species; known pressor agent]”, the “rate of wound healing” value in the data set with wound tissue was “significantly increases”.
